Test results as given in PubChem BioAssay AID1259407 (Chemical Carcinogenesis Research Information System (CCRIS), 2018).
Active and inactive are the calls of the source. No rule for the calls is given here.

System: CCRIS mutagenicity, Ames/micronucleus/aberration tests
Test: CCRIS mutagenicity studies

Q: With Cc1ccc(N)cc1 as the compound, how does the mutagenic call (Test System: AMES SALMONELLA TYPHIMURIUM, Strain/Indicator: TA97, Metabolic Activation: HAMSTER, LIVER, S-9, AROCLOR 1254 (10%), Method: PREINCUBATION) read?
A: inactive; negative

Q: What about the mutagenic call (Test System: AMES SALMONELLA TYPHIMURIUM, Strain/Indicator: TA97, Metabolic Activation: HAMSTER, LIVER, S-9, AROCLOR 1254 (30%), Method: PREINCUBATION) of the same compound?
A: inactive; negative

Q: What about the mutagenic call (Test System: AMES SALMONELLA TYPHIMURIUM, Strain/Indicator: TA97, Metabolic Activation: NONE, Method: PREINCUBATION) of the same compound?
A: inactive; negative

Q: What about the mutagenic call (Test System: AMES SALMONELLA TYPHIMURIUM, Strain/Indicator: TA97, Metabolic Activation: RAT, LIVER, S-9, AROCLOR 1254 (10%), Method: PREINCUBATION) of the same compound?
A: inactive; negative

Q: And the mutagenic call (Test System: AMES SALMONELLA TYPHIMURIUM, Strain/Indicator: TA97, Metabolic Activation: RAT, LIVER, S-9, AROCLOR 1254 (30%), Method: PREINCUBATION)?
A: inactive; negative

Q: And the mutagenic call (Test System: AMES SALMONELLA TYPHIMURIUM, Strain/Indicator: TA98, Metabolic Activation: HAMSTER, LIVER, S-9, AROCLOR 1254 (10%), Method: PREINCUBATION)?
A: inactive; negative

Q: And the mutagenic call (Test System: AMES SALMONELLA TYPHIMURIUM, Strain/Indicator: TA98, Metabolic Activation: HAMSTER, LIVER, S-9, AROCLOR 1254 (30%), Method: PREINCUBATION)?
A: inactive; negative

Q: And the mutagenic call (Test System: AMES SALMONELLA TYPHIMURIUM, Strain/Indicator: TA98, Metabolic Activation: HAMSTER, LIVER, S-9, SODIUM PHENOBARBITAL AND 5,6-BENZOFLAVONE, Method: PREINCUBATION)?
A: inactive; negative

Q: What about the mutagenic call (Test System: AMES SALMONELLA TYPHIMURIUM, Strain/Indicator: TA98, Metabolic Activation: NONE, Method: PREINCUBATION) of the same compound?
A: inactive; negative

Q: What about the mutagenic call (Test System: AMES SALMONELLA TYPHIMURIUM, Strain/Indicator: TA98, Metabolic Activation: RAT LIVER S-9, PHENOBARBITAL AND BETA-NAPHTHOFLAVONE, Method: PREINCUBATION) of the same compound?
A: inactive; negative

Q: And the mutagenic call (Test System: AMES SALMONELLA TYPHIMURIUM, Strain/Indicator: TA98, Metabolic Activation: RAT, LIVER, S-9, AROCLOR 1254 (10%), Method: PREINCUBATION)?
A: inactive; negative

Q: What about the mutagenic call (Test System: AMES SALMONELLA TYPHIMURIUM, Strain/Indicator: TA98, Metabolic Activation: RAT, LIVER, S-9, AROCLOR 1254 (30%), Method: PREINCUBATION) of the same compound?
A: inactive; negative

Q: What about the mutagenic call (Test System: AMES SALMONELLA TYPHIMURIUM, Strain/Indicator: TA100, Metabolic Activation: HAMSTER, LIVER, S-9, AROCLOR 1254 (10%), Method: PREINCUBATION) of the same compound?
A: inactive; negative

Q: And the mutagenic call (Test System: AMES SALMONELLA TYPHIMURIUM, Strain/Indicator: TA100, Metabolic Activation: HAMSTER, LIVER, S-9, AROCLOR 1254 (30%), Method: PREINCUBATION)?
A: active; positive

Q: What about the mutagenic call (Test System: AMES SALMONELLA TYPHIMURIUM, Strain/Indicator: TA100, Metabolic Activation: HAMSTER, LIVER, S-9, SODIUM PHENOBARBITAL AND 5,6-BENZOFLAVONE, Method: PREINCUBATION) of the same compound?
A: inactive; negative

Q: And the mutagenic call (Test System: AMES SALMONELLA TYPHIMURIUM, Strain/Indicator: TA100, Metabolic Activation: NONE, Method: PREINCUBATION)?
A: inactive; negative

Q: And the mutagenic call (Test System: AMES SALMONELLA TYPHIMURIUM, Strain/Indicator: TA100, Metabolic Activation: RAT LIVER S-9, PHENOBARBITAL AND BETA-NAPHTHOFLAVONE, Method: PREINCUBATION)?
A: inactive; negative

Q: And the mutagenic call (Test System: AMES SALMONELLA TYPHIMURIUM, Strain/Indicator: TA100, Metabolic Activation: RAT, LIVER, S-9, AROCLOR 1254 (10%), Method: PREINCUBATION)?
A: inactive; negative

Q: What about the mutagenic call (Test System: AMES SALMONELLA TYPHIMURIUM, Strain/Indicator: TA100, Metabolic Activation: RAT, LIVER, S-9, AROCLOR 1254 (30%), Method: PREINCUBATION) of the same compound?
A: inactive; negative

Q: And the mutagenic call (Test System: AMES SALMONELLA TYPHIMURIUM, Strain/Indicator: TA102, Metabolic Activation: HAMSTER, LIVER, S-9, SODIUM PHENOBARBITAL AND 5,6-BENZOFLAVONE, Method: PREINCUBATION)?
A: inactive; negative

Q: What about the mutagenic call (Test System: AMES SALMONELLA TYPHIMURIUM, Strain/Indicator: TA102, Metabolic Activation: NONE, Method: PREINCUBATION) of the same compound?
A: inactive; negative

Q: And the mutagenic call (Test System: AMES SALMONELLA TYPHIMURIUM, Strain/Indicator: TA104, Metabolic Activation: HAMSTER, LIVER, S-9, SODIUM PHENOBARBITAL AND 5,6-BENZOFLAVONE, Method: PREINCUBATION)?
A: inactive; negative

Q: What about the mutagenic call (Test System: AMES SALMONELLA TYPHIMURIUM, Strain/Indicator: TA104, Metabolic Activation: NONE, Method: PREINCUBATION) of the same compound?
A: inactive; negative

Q: What about the mutagenic call (Test System: AMES SALMONELLA TYPHIMURIUM, Strain/Indicator: TA1535, Metabolic Activation: HAMSTER, LIVER, S-9, AROCLOR 1254 (10%), Method: PREINCUBATION) of the same compound?
A: inactive; negative

Q: What about the mutagenic call (Test System: AMES SALMONELLA TYPHIMURIUM, Strain/Indicator: TA1535, Metabolic Activation: HAMSTER, LIVER, S-9, AROCLOR 1254 (30%), Method: PREINCUBATION) of the same compound?
A: inactive; negative

Q: What about the mutagenic call (Test System: AMES SALMONELLA TYPHIMURIUM, Strain/Indicator: TA1535, Metabolic Activation: HAMSTER, LIVER, S-9, SODIUM PHENOBARBITAL AND 5,6-BENZOFLAVONE, Method: PREINCUBATION) of the same compound?
A: inactive; negative

Q: What about the mutagenic call (Test System: AMES SALMONELLA TYPHIMURIUM, Strain/Indicator: TA1535, Metabolic Activation: NONE, Method: PREINCUBATION) of the same compound?
A: inactive; negative

Q: And the mutagenic call (Test System: AMES SALMONELLA TYPHIMURIUM, Strain/Indicator: TA1535, Metabolic Activation: RAT LIVER S-9, PHENOBARBITAL AND BETA-NAPHTHOFLAVONE, Method: PREINCUBATION)?
A: inactive; negative

Q: What about the mutagenic call (Test System: AMES SALMONELLA TYPHIMURIUM, Strain/Indicator: TA1535, Metabolic Activation: RAT, LIVER, S-9, AROCLOR 1254 (10%), Method: PREINCUBATION) of the same compound?
A: inactive; negative

Q: And the mutagenic call (Test System: AMES SALMONELLA TYPHIMURIUM, Strain/Indicator: TA1535, Metabolic Activation: RAT, LIVER, S-9, AROCLOR 1254 (30%), Method: PREINCUBATION)?
A: inactive; negative

Q: What about the mutagenic call (Test System: AMES SALMONELLA TYPHIMURIUM, Strain/Indicator: TA1537, Metabolic Activation: HAMSTER, LIVER, S-9, SODIUM PHENOBARBITAL AND 5,6-BENZOFLAVONE, Method: PREINCUBATION) of the same compound?
A: inactive; negative

Q: What about the mutagenic call (Test System: AMES SALMONELLA TYPHIMURIUM, Strain/Indicator: TA1537, Metabolic Activation: NONE, Method: PREINCUBATION) of the same compound?
A: inactive; negative

Q: What about the mutagenic call (Test System: AMES SALMONELLA TYPHIMURIUM, Strain/Indicator: TA1537, Metabolic Activation: RAT LIVER S-9, PHENOBARBITAL AND BETA-NAPHTHOFLAVONE, Method: PREINCUBATION) of the same compound?
A: inactive; negative

Q: What about the mutagenic call (Test System: E. COLI, Strain/Indicator: WP2UVRA/PKM101, Metabolic Activation: HAMSTER, LIVER, S-9, SODIUM PHENOBARBITAL AND 5,6-BENZOFLAVONE, Method: PREINCUBATION) of the same compound?
A: inactive; negative

Q: And the mutagenic call (Test System: E. COLI, Strain/Indicator: WP2UVRA/PKM101, Metabolic Activation: NONE, Method: PREINCUBATION)?
A: inactive; negative

Q: And the mutagenic call (Test System: E. COLI, Strain/Indicator: WP2UVRA, Metabolic Activation: HAMSTER, LIVER, S-9, SODIUM PHENOBARBITAL AND 5,6-BENZOFLAVONE, Method: PREINCUBATION)?
A: inactive; negative

Q: And the mutagenic call (Test System: E. COLI, Strain/Indicator: WP2 UVRA, Metabolic Activation: NONE, Method: FLUCTUATION TEST)?
A: inactive; negative

Q: What about the mutagenic call (Test System: E. COLI, Strain/Indicator: WP2UVRA, Metabolic Activation: NONE, Method: PREINCUBATION) of the same compound?
A: inactive; negative

Q: What about the mutagenic call (Test System: E.COLI, Strain/Indicator: WP2UVRA, Metabolic Activation: NONE, Method: PREINCUBATION) of the same compound?
A: inactive; negative

Q: What about the mutagenic call (Test System: E.COLI, Strain/Indicator: WP2UVRA, Metabolic Activation: RAT LIVER S-9, PHENOBARBITAL AND BETA-NAPHTHOFLAVONE, Method: PREINCUBATION) of the same compound?
A: inactive; negative
